Test results published in patent US12552800B2, “Compounds for diagnosis” (AC IMMUNE SA, priority 2020, dated 2026).

Target: T1, PD brain-derived a-syn aggregates (Homo sapiens, UniProt P37840)
T1 construct: from tissue; host or cells: human PD donor brain, sarkosyl-insoluble 100,000 x g pellet
Assay: Micro-radiobinding competition assay against Example-1 [^3H-1] (Table 8)
Assay type: binding
Settings: for Competition at 100 nM (%): 100 nM non-radiolabelled example compound vs Example-1 [^3H-1] ligand; for Competition at 100 nM (%) / Competition at 1 μM (%): human PD brain-derived a-syn aggregates; for Competition at 1 μM (%): 1 μM non-radiolabelled example compound vs Example-1 [^3H-1] ligand; for Ki: mean of Ki values in independent experiments using PD brain-derived homogenates from two different donors
Method: PD brain-derived a-syn aggregates were spotted onto microarray slides. The slides were incubated with the Example-1 [^3H-1] at 6 nM or 20 nM and the example compounds (non-radiolabelled) at 1 μM and 100 nM. In some cases, the non-radiolabelled example compounds were further assessed for a range of different concentrations, varying from 0.05 nM to 2 μM. After incubation, slides were washed and scanned by a real-time autoradiography system (BeaQuant, ai4R). Quantification of the signal was performed by using the Beamage image analysis software (ai4R). […] All measurements were performed with at least two technical replicates. For compounds tested in more than one experiment, the mean of the replicates or K; values in independent experiments is reported.
Results: Example compounds were assessed for their potency to compete with the binding of Example-1 [^3H-1] ligand to PD patient brain-derived a-syn aggregates. Results of the micro-radiobinding competition assay for the example compounds tested are shown in Table 8 as: % competition at 1 μM and 100 nM.

| Structure (SMILES) | Competition at 100 nM (%) | Competition at 1 μM (%) | Ki |
| --- | --- | --- | --- |
| COc1ccc(N2Cc3nn(-c4ccc(N5CC[C@@H](F)C5)nc4)cc3C2=O)cn1 [Example 8] | 67% | 91% | – |
| COc1ccc(N2Cc3nn(-c4ccc(N5CC[C@H](F)C5)nc4)cc3C2=O)cn1 [Example 9] | 69% | 90% | – |
| Cc1ccc(N2Cc3nn(-c4ccc(N5CC[C@@H](F)C5)nc4)cc3C2=O)cn1 [Example 10] | 58% | 90% | 0.061 µM |
| Cc1ccc(N2Cc3nn(-c4ccc(N5CC[C@H](F)C5)nc4)cc3C2=O)cn1 [Example 11] | 50% | 98% | – |
| Cc1ncccc1N1Cc2nn(-c3ccc(N4CC[C@@H](F)C4)nc3)cc2C1=O [Example 12] | – | 25% | – |
| Cc1ncccc1N1Cc2nn(-c3ccc(N4CC[C@H](F)C4)nc3)cc2C1=O [Example 13] | 4% | 31% | – |
| O=C1c2cn(-c3ccc(N4CC[C@@H](F)C4)nc3)nc2CN1c1cncnc1 [Example 14] | 42% | 77% | – |
| O=C1c2cn(-c3ccc(N4CC[C@@H](F)C4)nc3)nc2CN1c1ncccn1 [Example 15] | 61% | 91% | – |
| O=C1c2cn(-c3ccc(N4CC[C@H](F)C4)nc3)nc2CN1c1cncnc1 [Example 16] | 32% | 70% | – |
| O=C1c2cn(-c3ccc(N4CC[C@H](F)C4)nc3)nc2CN1c1ccccc1 [Example 20] | 48% | 90% | – |
| N#Cc1ccc(N2Cc3nn(-c4ccc(N5CC[C@H](F)C5)nc4)cc3C2=O)cc1N [Example 21] | – | 84% | – |
| N#Cc1cc(N2Cc3nn(-c4ccc(N5CC[C@H](F)C5)nc4)cc3C2=O)ccc1N [Example 22] | – | 72% | – |
| N#Cc1cc(N2Cc3nn(-c4ccc(N5CC[C@@H](F)C5)nc4)cc3C2=O)ccc1N [Example 23] | – | 81% | – |
| N#Cc1ccc(N2Cc3nn(-c4ccc(N5CC[C@@H](F)C5)nc4)cc3C2=O)cc1N [Example 24] | – | 97% | – |
| COc1ccc(N2Cc3nn(-c4ccc(N5CC[C@H](F)C5)nc4)cc3C2=O)nc1 [Example 28] | 89% | 99% | – |
| N#Cc1ccc(N2Cc3nn(-c4ccc(N5CC[C@H](F)C5)nc4)cc3C2=O)cn1 [Example 29] | 91% | – | – |
| COc1ccc(N2Cc3nn(-c4ccc(N5CC[C@H](F)C5)nc4)cc3C2=O)cc1 [Example 30] | 80% | 95% | – |
| N#Cc1ccc(N2Cc3nn(-c4ccc(N5CC[C@H](F)C5)nc4)cc3C2=O)nc1 [Example 31] | 86% | – | – |
| Cc1ccccc1N1Cc2nn(-c3ccc(N4CC[C@H](F)C4)nc3)cc2C1=O [Example 32] | 16% | 25% | – |
| N#Cc1ccc(N2Cc3nn(-c4ccc(N5CC[C@@H](F)C5)nc4)cc3C2=O)nc1 [Example 33] | 75% | – | – |

| Structure (SMILES) | Competition at 100 nM (%) | Competition at 1 μM (%) | Ki |
| --- | --- | --- | --- |
| COc1cccc(N2Cc3nn(-c4ccc(N5CC[C@@H](F)C5)nc4)cc3C2=O)c1 [Example 34] | 80% | 89% | – |
| Cc1ccc(N2Cc3nn(-c4ccc(N5CC[C@H](F)C5)nc4)cc3C2=O)cc1 [Example 35] | 73% | – | – |
| COc1cccc(N2Cc3nn(-c4ccc(N5CC[C@H](F)C5)nc4)cc3C2=O)c1 [Example 36] | 74% | 91% | – |
| COc1ccccc1N1Cc2nn(-c3ccc(N4CC[C@H](F)C4)nc3)cc2C1=O [Example 37] | 37% | – | – |
| Cc1cccc(N2Cc3nn(-c4ccc(N5CC[C@H](F)C5)nc4)cc3C2=O)c1 [Example 38] | 70% | – | – |
| O=C1c2cn(-c3ccc(N4CCCC4)nc3)nc2CN1c1cccnc1F [Example 39] | 43% | 66% | – |
| O=C1c2cn(-c3ccc(N4CCCC4)nc3)nc2CN1c1ccnc(F)c1 [Example 41] | 61% | 93% | – |
| O=C1c2cn(-c3ccc(N4CCCC4)nc3)nc2CN1c1nccnc1F [Example 42] | 57% | 89% | – |
| O=C1c2cn(-c3ccc(N4CCC[C@H](F)C4)nc3)nc2CN1c1cccnc1 [Example 43] | 47% | 88% | – |
| Nc1cc(N2Cc3nn(-c4ccc(N5CCCC5)nc4)cc3C2=O)ccc1F [Example 44] | 90% | – | – |
| O=C1c2cn(-c3ccc(N4CCOCC4)nc3)nc2CN1c1nccnc1F [Example 45] | 78% | 92% | 0.052 µM |
| N#Cc1cc(N2Cc3nn(-c4ccc(N5CCCC5)nc4)cc3C2=O)ccc1F [Example 46] | 61% | – | – |
| O=C1c2cn(-c3ccc(N4CCCC4)nc3)nc2CN1c1cnccc1F [Example 47] | 39% | – | – |
| Cl.O=C1c2cn(-c3ccc(N4CCCC4)nc3)nc2CN1c1ccc(F)nc1 [Example 49] | 48% | 84% | – |
| O=C1c2cn(-c3ccc(N4CC[C@@H](F)C4)nc3)nc2CN1c1ccccc1 [Example 51] | 80% | 100% | – |
| Cc1c2c(nn1-c1ccc(N3CC[C@@H](F)C3)nc1)CN(c1cccnc1)C2=O [Example 52] | 26% | 29% | – |
| Cc1c2c(nn1-c1ccc(N3CC[C@H](F)C3)nc1)CN(c1cccnc1)C2=O [Example 53] | 27% | 54% | – |
| N#Cc1ccc(N2Cc3nn(-c4ccc(N5CCCC5)nc4)cc3C2=O)cc1F [Example 55] | 11% | 38% | – |
| N#Cc1ccc(N2Cc3nn(-c4ccc(N5CC[C@@H](F)C5)nc4)cc3C2=O)cc1 [Example 56] | 93% | – | – |
| N#Cc1ccc(N2Cc3nn(-c4ccc(N5CC[C@@H](F)C5)nc4)cc3C2=O)cn1 [Example 57] | 88% | – | – |

| Structure (SMILES) | Competition at 100 nM (%) | Competition at 1 μM (%) | Ki |
| --- | --- | --- | --- |
| COc1ccc(N2Cc3nn(-c4ccc(N5CC[C@@H](F)C5)nc4)cc3C2=O)nc1 [Example 58] | 85% | 98% | – |
| N#Cc1ccc(N2Cc3nn(-c4ccc(N5CC[C@H](F)C5)nc4)cc3C2=O)cc1 [Example 59] | 86% | – | – |
| Cc1ccc(N2Cc3nn(-c4ccc(N5CC[C@@H](F)C5)nc4)cc3C2=O)cc1 [Example 60] | 70% | 71% | – |
| Cc1cccc(N2Cc3nn(-c4ccc(N5CC[C@@H](F)C5)nc4)cc3C2=O)c1 [Example 61] | 53% | 80% | – |
| COc1ccccc1N1Cc2nn(-c3ccc(N4CC[C@@H](F)C4)nc3)cc2C1=O [Example 62] | 8% | 27% | – |
| O=C1c2cn(-c3ccc(N4CC[C@@H](F)C4)nc3)nc2CN1c1ccc(F)cc1 [Example 63] | 79% | 96% | – |
| N#Cc1cccc(N2Cc3nn(-c4ccc(N5CC[C@H](F)C5)nc4)cc3C2=O)c1 [Example 65] | 64% | – | – |
| O=C1c2cn(-c3ccc(N4CC[C@@H](F)C4)cn3)nc2CN1c1cccnc1 [Example 66] | 72% | 92% | – |
| N#Cc1cccc(N2Cc3nn(-c4ccc(N5CC[C@@H](F)C5)nc4)cc3C2=O)c1 [Example 67] | 71% | – | – |
| O=C1c2cn(-c3ccc(N4CC[C@@H](F)C4)nc3)nc2CN1c1cccc(F)c1 [Example 68] | 63% | – | – |
| O=C1c2cn(-c3ccc(N4CC[C@@H](F)C4)nc3)nc2CN1c1ccccc1F [Example 69] | 16% | 48% | – |
| O=C1c2cn(-c3ccc(N4CC[C@H](F)C4)nc3)nc2CN1c1cccc(F)c1 [Example 70] | 65% | – | – |
| O=C1c2cn(-c3ccc(N4CC[C@H](F)C4)nc3)nc2CN1c1ccccc1F [Example 71] | 18% | 51% | – |
| O=C1c2cn(-c3ccc(N4CC[C@H](F)C4)cn3)nc2CN1c1cccnc1 [Example 72] | 45% | 79% | – |
| Cc1c2c(nn1-c1ccc(N3CC[C@H](F)C3)nc1)CN(c1ccccn1)C2=O [Example 73] | 33% | 66% | – |
| COc1cccc(N2Cc3nn(-c4ccc(N5CC[C@@H](F)C5)nc4)cc3C2=O)n1 [Example 74] | 22% | 39% | – |
| Cc1cccc(N2Cc3nn(-c4ccc(N5CC[C@@H](F)C5)nc4)cc3C2=O)n1 [Example 75] | 58% | 73% | – |
| COc1ccnc(N2Cc3nn(-c4ccc(N5CC[C@@H](F)C5)nc4)cc3C2=O)c1 [Example 76] | 69% | 93% | – |
| COc1ccnc(N2Cc3nn(-c4ccc(N5CC[C@H](F)C5)nc4)cc3C2=O)c1 [Example 77] | 95% | 94% | – |
| COc1cccc(N2Cc3nn(-c4ccc(N5CC[C@H](F)C5)nc4)cc3C2=O)n1 [Example 78] | 60% | – | – |
